Values joined by “and” are separate entries in the source; they are usually repeats but may differ in a detail not shown here. Equal values may be shown once. “Also recorded” adds a separate entry of the source.
What was measured:
[1] = system: D54-PNP tumors; test: E. coli PNP-transduced D54 glioma tumors in nude mice; format: in vivo; conditions: previous studies
Procedure: Female athymic nude mice (nu/nu) were implanted sc with 2×10^7 cells of either D54 parental tumor cells (D54-wt) or D54 tumor cells that had been transduced with the E. coli PNP (D54-PNP). After the tumors had grown to approximately 150 mg, they were treated ip with either vehicle or 67 mg/kg of MeP-dR (IP) once a day for 3 days (days 6, 7 and 8 after implantation). The tumor sizes were measured twice a week after treatment.
A confirmation experiment was set up exactly as described above, except that animals were treated with two doses of MeP-dR (45 and 67 mg/kg) (FIGS. 10 and 11). The results of this experiment were similar (Table V). There were 8 of 10 complete regressions in mice bearing the D54-PNP tumors that were treated with 67 mg/kg of MeP-dR. In 4 mice the tumors subsequently returned and grew. There were still 4 of 10 tumor-free survivors 60 days after the treatment had stopped. […] There were 2 of 10 complete regressions and 3 partial responses. […] The delay in the time required to double twice due to treatment with MeP-dR was 5 to 6 days in the non-transduced tumors and greater than 24 days in transduced tumors. In this experiment, the growth rate of the D54-PNP tumors was considerably slower than it was in the first experiment. There was no change in the growth rate of the D54-wt tumors. The reason for the slow growth rate of the D54-PNP tumors in this experiment is not known. […] (In other words, if a tumor was too small to measure, it was not included in the average size). This means that the overall tumor regressions in the D54 PNP group are actually much more pronounced than they appear in FIGS. 8-11.

[2] = system: wild-type 16/C tumors; test: Wild-type 16/C tumors in B6C3F1 mice; format: in vivo
Procedure: (§1) Transduced 16/C cells were implanted in mice by subcutaneous injection of approximately 10^6 cells harvested from the cultures of stably transduced 16/C cells described above. The mice were examined visibly for tumor growth and those with developing tumors were maintained. To prepare mice for use in the in vivo experiments, the tumors were removed from mice with significant tumor growth and cut into 30-60 mg pieces. One 30-60 mg piece of the tumor was subcutaneously implanted into the subaxillary region of each female B6C3F1 mouse. The tumors were allowed to develop and mice with tumors of 100 mm^3 were used.
Six mice (B6C3F1) per group with established wild type 16/C tumors were treated with an aqueous control solution, MeP-dR (100 mg/kg IP qd×3d) or 2-fluoro-arabinofuranosyladenine monophosphate (F-araAMP) (100 mg/kg IP, […]). The wild type tumors grew rapidly in the presence or absence of either of the prodrugs. […] (Table III, Wild-type 16/C treatment).

[3] = system: 16/C-PNP cells; test: 16/C-PNP tumors in athymic nude mice; conditions: 100 mg/kg IP 3 id × 3 d; monophosphate
[4] = system: 16/C-PNP tumors; test: E. coli PNP-transduced 16/C tumors in B6C3F1 mice; format: in vivo
Procedure: as §1
Six mice per group with established PNP-transduced 16/C tumors were treated with aqueous control solution, MeP-dR or F-ara AMP, as above. […] (Table III, 16/C-PNP treatment.)

[5] = system: wild type murine breast carcinoma cells (16/C cell line); test: Wild-type 16/C tumors in nude mice; format: in vivo; conditions: FIG. 6
Procedure: For studies conducted with nu/nu mice, cells obtained from stable cultures of transduced cell lines were injected subcutaneously into the right or left flank of the mice. Mice with visible tumor growth were used for further studies. For the administration of purine prodrug, mice were administered MeP-dR or F-araAMP by IP injection.
Four to five nude (nu/nu) mice per group were inoculated with wild type murine breast carcinoma cells (16/C cell line), or PNP transduced 16/C cells. Mice with established tumors (approximately 100 mm^3) were treated with MeP-dR (100 mg/kg/d IP×3 d) or F-araAMP (100 mg/kg/IP 3 id×3 d).

[6] = system: D54 glioma tumors; test: D54 tumors of mixed wild-type and transduced cells (80 to 20); conditions: in vivo
[7] = system: PNP transduced tumors; format: in vivo; conditions: mouse, in vivo
[8] = target: T1, human PNP (Homo sapiens, UniProt P00491); test: Cleavage of purine analog nucleosides by human PNP (HPLC); format: biochemical
T1 sequence (P00491 1-289): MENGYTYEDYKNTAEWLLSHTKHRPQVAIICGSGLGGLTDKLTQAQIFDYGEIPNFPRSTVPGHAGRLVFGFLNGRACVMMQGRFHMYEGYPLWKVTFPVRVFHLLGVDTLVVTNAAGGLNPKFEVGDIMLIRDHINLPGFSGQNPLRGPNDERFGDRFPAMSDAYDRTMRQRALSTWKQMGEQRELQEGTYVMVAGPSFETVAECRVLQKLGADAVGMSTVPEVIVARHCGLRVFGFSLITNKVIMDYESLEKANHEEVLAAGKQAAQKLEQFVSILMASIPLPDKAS

[9] = system: tumor cells transduced with the E. coli PNP; test: Killing of PNP-transduced tumor cells in vitro by other prodrugs; format: cell-based
Excerpt: In addition to MeP-dR, two other prodrugs suitable for E. coli PNP activation in tumor cells can be applied to the methodology of the present invention. These prodrugs are F-araA and 2-F-2′deoxyadenosine. […] As desired, this dose had no effect on control untransduced, tumor cells.

[10] = target: T2, E. coli PNP (Escherichia coli, UniProt P0ABP8)
T2 sequence (P0ABP8 2-239): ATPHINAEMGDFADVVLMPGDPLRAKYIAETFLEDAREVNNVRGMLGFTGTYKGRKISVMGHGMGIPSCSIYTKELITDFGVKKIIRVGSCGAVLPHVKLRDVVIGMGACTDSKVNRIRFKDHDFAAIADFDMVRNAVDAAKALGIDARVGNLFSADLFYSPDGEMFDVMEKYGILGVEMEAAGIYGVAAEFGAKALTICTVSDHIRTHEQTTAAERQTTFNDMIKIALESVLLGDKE

[11] = target: T2, E. coli PNP; format: biochemical
[12] = Stability under tissue culture conditions (HPLC of supernatants); conditions: HPLC analysis of supernatants
[13] = system: Mel-1 cells; test: Wild type melanoma cell viability; format: cell-based, human; conditions: concentrations as low as 0.5 μg/ml, five days
[14] = system: CF PAC (human pancreatic adenocarcinoma) cells; test: Intratumoral MeP in established human pancreatic tumors in SCID mice; format: in vivo; conditions: once a day for three days
Procedure: CF PAC (human pancreatic adenocarcinoma) cells were grown in T75 flasks, trypsinized, washed with PBS and then inoculated subcutaneously into female SCID mice at approximately 2×10^7 cells per animal. The tumors were allowed to grow for several days until they reached the size of approximately […]. At this point, groups of five animals were treated either with vehicle (PBS), PBS containing methyl purine (1.67 mg/kg) or PBS with a higher dose of methyl purine (5.0 mg/kg). Drug or vehicle was injected intratumorally with 3-4 needle passes. Animals were treated with either vehicle or drug one time each day for three days. The growth of the tumors was followed. Measurements in two dimension were used to approximate the overall tumor size. […] For example, purine analogs which are known to have strong cytotoxic activity such as 2-fluoroadenine, 2-fluoroadenosine, 9-[ribosyl]-6-methylpurine, 2-amino-6-chloro-1-deazapurine, 3-deazaguanine, 6-thioguanine, and 6-mercaptopurine can be directly administered to a tumor to cause regression and/or inhibit tumor growth.

[15] = system: CEM cells; test: Toxicity to nondividing CEM cells (1% serum); format: cell-based; conditions: 10 μg/ml, non-proliferating cells in 1% serum
Procedure: Results from experiments indicate that MeP is able to kill non-proliferating cells. This distinguishes MeP from most other antitumor agents. In the first experiment, CEM cells were cultured in 1% serum instead of the normal 10% serum for 48 hours. Under these conditions, the cells stop growing and the cell numbers stabilize at 1.5 to 2 times the original cell numbers. Cell growth continues when cells are returned to culture medium containing 10% serum.

[16] = system: T-84 colon carcinoma cells; test: Toxicity of MeP and MeP-dR in untransfected T-84 cells; format: cell-based, human
Procedure: T-84 colon carcinoma cells were grown in Dulbecco's modified Eagle medium containing F12 nutrient medium (DMEM/F12) (GIBCO/BRL, Gaithersburg, Md.) in 6 well trays to a density of approximately […] (−20% confluency).
Untransfected T-84 colon carcinoma cells were treated with increasing concentrations of either MeP-dR or MeP. After 5 days the cells were removed from each well and the number of dye excluding cells were determined with the aid of a hemacytometer. Cells were studied both at passage 48 (p. 48) and passage 61 (p. 61). MeP was obtained from Sigma Chemical Company (St. Louis, Mo.). MeP-dR was synthesized by standard methods as described (J. A. Montgomery and K. Howson, J. Med. Chem., 11:48-52 (1968)). The nucleoside and base were dissolved in serum free DMEM/F12 at a concentration of 1 mg/ml and added directly to 1 ml DMEM/F12 with 10% fetal bovine serum at the concentrations described below in order to cover 1-2×10^5 cells/well.
Initial cytopathic effects due to MeP were observed within 24 hours (for example, rounding of cells, with some cells detaching from plate). Viable cells were counted 5 days following addition of drug. […] Trypan blue exclusion was used to confirm viability in cells retaining recognizable structure at all concentrations studied. […] If the toxicity of MeP-dR is due to very low levels of liberation of MeP by human PNP, then combination with selective inhibitors of human PNP could prevent this toxicity.

[17] = system: OC[C@H]1O[C@@H](n2cnc3c(O)ncnc32)[C@H](O)[C@@H]1O; test: purified protein, by the assay type; conditions: other: enzyme source: Bacteria
[18] = system: Nc1nc(F)nc2c1ncn2[C@H]1C[C@H](O)[C@@H](CO)O1; test: purified protein, by the assay type
[19] = IP for three days, MeP-dR 100, F-araAMP 500 mg/kg/day

## Nc1nc(F)nc2c1ncn2[C@@H]1O[C@H](COP(=O)(O)O)[C@@H](O)[C@@H]1O [F-araAMP, 2-fluoro-arabinofuranosyladenine monophosphate, reference compound]
[1]
  Activity against D54 glioma tumors expressing the E. coli PNP gene: good activity
[2]; [19]
  Complete Regressions/Total: 0/6
  Day delay (Treated-control): 2.7 days
  Nonspecific Deaths/Total: 0/6
[2]; wild type 16/C
  Delay in tumor growth, in words: no statistically significant delay in tumor growth
[3]
  Effect of F-araAMP on growth of 16/C tumors expressing E. coli PNP: growth delay for at least ten days; also recorded: significantly inhibited the growth
[4]; [19]
  Complete Regressions/Total: 0/6
  Day delay (Treated-control): 3.3 days
  Nonspecific Deaths/Total: 0/6
[4]; p<0.01
  Delay in time for three tumor doublings, in words: statistically significant delay
[4]; tumors that completely regressed not included
  Days for tumor to double 3 times mean/SD: 12.1 ± 1.6 days
[5]
  Effect on growth of wild-type 16/C tumors: only a small effect on tumor growth
[6]
  Activity against tumors of wild-type and transduced cells at 80 to 20: less active
[7]
  Anti-tumor effect on PNP transduced tumors in mice: in vivo regression

## Nc1nc(F)nc2c1ncn2[C@@H]1O[C@H](CO)[C@@H](O)[C@@H]1O [F-araA, 2-F-arabinofuranosyl-adenine]
[8]
  Percent of substrate cleaved by Human PNP, 100 μM: 0(88) Percent and 0(86) Percent
  Percent of substrate cleaved by Human PNP, 1 mM: 0(50) Percent and 0(47) Percent
  Substrate quality for mammalian (human) PNP: poor substrates; also recorded: not cleaved
[9]
  Killing of PNP-transduced tumor cells in vitro: high level killing
[9]; 500 ng/ml
  Killing of transduced versus untransduced tumor cells: specifically killed transduced, but not untransduced, tumor cells
[10]
  Km: 510 µM
[11]
  Percent of substrate cleaved by E. coli PNP, 100 μM: 3(86) Percent and 5(86) Percent
  Substrate quality for bacterial (E. coli) PNP: moderate substrates; also recorded: poorly cleaved

## Cc1ncnc2nc[nH]c12 [MeP, 6-methylpurine, reference compound]
[12]
  Stability under tissue culture conditions: stable
[13]
  Lethality to Mel-1 cells: ~100%
[14]; 1.67 mg/kg intratumorally
  Tumor growth: intermediate effect upon tumor growth
[14]; 5.0 mg/kg intratumorally
  Tumor growth: completely arrested in terms of their growth
[15]
  Cell numbers relative to original number: approximately 25%
[16]
  Time to initial cytopathic effects: ≤ 24 h
[16]; MeP 3.75 μM-75 μM, by day 2
  Effect on cells: cell lysis and complete loss of cellular architecture

## E. coli PNP (Escherichia coli K-12)
[17]
  Km: 46 µM
[18]; other: enzyme source: Bacteria
  Km: 44 µM
[18]; other: enzyme source: D54 cells (transduced)
  Km: 38 µM
